Target: Serine/threonine-protein kinase PAK 1 (Homo sapiens, UniProt Q13153)
Assay: Inhibition of human recombinant PAK1 assessed as phosphorylation FRET peptide substrate measured after 60 mins

Serine/threonine-protein kinase PAK 1, sequence (Q13153 whole entry): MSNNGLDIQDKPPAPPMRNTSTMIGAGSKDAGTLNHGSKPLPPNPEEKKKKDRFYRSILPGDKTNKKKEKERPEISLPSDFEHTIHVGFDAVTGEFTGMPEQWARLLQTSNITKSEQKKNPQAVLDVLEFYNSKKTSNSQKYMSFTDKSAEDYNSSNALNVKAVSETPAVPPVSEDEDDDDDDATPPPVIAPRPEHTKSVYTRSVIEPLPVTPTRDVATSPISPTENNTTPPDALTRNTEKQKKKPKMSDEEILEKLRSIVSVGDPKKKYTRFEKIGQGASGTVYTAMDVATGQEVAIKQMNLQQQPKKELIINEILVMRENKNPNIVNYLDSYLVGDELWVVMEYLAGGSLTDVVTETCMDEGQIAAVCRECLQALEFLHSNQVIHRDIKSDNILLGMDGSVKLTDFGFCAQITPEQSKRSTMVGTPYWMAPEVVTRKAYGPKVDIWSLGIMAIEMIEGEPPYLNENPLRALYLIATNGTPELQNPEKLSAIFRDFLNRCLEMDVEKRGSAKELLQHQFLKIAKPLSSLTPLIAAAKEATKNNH

Q: With `CN1C(=O)CCC(N2C(=O)c3cccc(NCCCCCCCCNC(=O)N4CC[C@H](NC5=Nc6cc(F)ccc6N(CC(F)F)c6ccc(Cl)cc65)C4)c3C2=O)C1=O` (stereo partly specified) as the compound, how does the IC50 read?
A: 233 nM

Reference: BindingDB's records for PubMed 36416208 (n/a, 2022)
